Values joined by “and” are separate entries in the source; they are usually repeats but may differ in a detail not shown here. Equal values may be shown once. Results filed as inconclusive are left out. Active and inactive are the calls of the source.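 The calls were made as follows: active = compound whose fitted half-maximal dose is at most twice its top tested dose in every repeat; inconclusive = mixed calls across repeats, weak flat response, or unreliable curve fit; inactive = all repeats flat, too weak, or wrong direction.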
Biological target: Glycogen synthase kinase-3 beta (Homo sapiens) (UniProt P49841)
Sequence (P49841 whole entry, looked up): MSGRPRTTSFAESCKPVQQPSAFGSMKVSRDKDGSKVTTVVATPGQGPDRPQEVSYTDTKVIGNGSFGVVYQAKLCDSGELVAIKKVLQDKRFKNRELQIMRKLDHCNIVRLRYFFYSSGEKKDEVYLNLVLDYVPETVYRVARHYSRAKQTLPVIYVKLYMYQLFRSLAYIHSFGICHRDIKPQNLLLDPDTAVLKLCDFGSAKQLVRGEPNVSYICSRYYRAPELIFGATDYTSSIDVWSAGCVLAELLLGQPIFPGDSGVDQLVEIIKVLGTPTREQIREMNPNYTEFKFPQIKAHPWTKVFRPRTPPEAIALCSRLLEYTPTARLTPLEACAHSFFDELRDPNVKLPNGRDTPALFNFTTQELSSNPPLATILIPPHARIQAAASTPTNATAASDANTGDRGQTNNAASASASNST
Test: inhibition of human GSK3beta kinase activity – biochemical, ADP-Glo luminescence, dry powder samples, SAR follow-up (AID 623998)
Conditions: GSK3beta ADP-Glo luminescence kinase assay, 60 min

Row | Compound | AC50
1 | COc1ccccc1C1C2=C(CC(C)(C)CC2=O)Nc2n[nH]c(C(C)C)c21 (configuration not stated) | 0.415 µM
2 | CC1(C)CC(=O)C2=C(C1)Nc1n[nH]c(C(F)(F)F)c1C2c1cc(F)ccc1OC(F)(F)F (configuration not stated) | 0.403 µM
3 | O/N=C/c1cn(-c2ccccc2)nc1-c1ccc(F)cc1 | 0.44 µM
4 | COc1ccccc1C1C2=C(CC(C)(C)CC2=O)Nc2[nH]ncc21 (configuration not stated) | 0.122 µM
5 | COc1cccc(-c2nn(-c3ccccc3)cc2/C=N/O)c1 | 1.76 µM
6 | COc1ccccc1C1C2=C(CC3(CCCCC3)CC2=O)Nc2n[nH]c(C)c21 (configuration not stated) | 0.278 µM
7 | COc1ccccc1C1C2=C(CC(C)(C)CC2=O)Nc2n[nH]c(-c3ccccc3)c21 (configuration not stated) | 1.55 µM
8 | CC(C)COc1ccc(-c2nn(-c3ccccc3)cc2/C=N/O)cc1 | 3.08 µM
9 | COc1ccccc1/C=C1\C(=O)CC(C)(C)CC1=Nc1cc(C(F)(F)F)[nH]n1 | 7.5 µM
10 | Cc1[nH]nc2c1C(C1CC1)C1=C(CC(C)(C)CC1=O)N2 (configuration not stated) | 3.05 µM
11 | Cc1[nH]nc2c1C(c1ccc3c(c1)OCO3)C1=C(CC(C)(C)CC1=O)N2 (configuration not stated) | 4.61 µM
12 | Cc1[nH]nc2c1C(C)(c1ccccc1)C1=C(CC(C)(C)CC1=O)N2 (configuration not stated) | 0.308 µM
13 | CC1(C)CC(=O)C2=C(C1)Nc1n[nH]c(C(F)(F)F)c1C2c1c(F)cccc1F (configuration not stated) | 0.0875 µM
14 | Cc1ccc(-c2nn(-c3ccccc3)cc2/C=N/O)cc1 | 0.313 µM
15 | CC1(C)CC(=O)/C(=C\c2cccc(F)c2C(F)(F)F)C(=Nc2cc(C(F)(F)F)[nH]n2)C1 | 2.63 µM
16 | O/N=C/c1cn(-c2ccccc2)nc1-c1ccc2c(c1)OCCO2 | 0.577 µM
17 | Cc1[nH]nc2c1C(c1ccn[nH]1)C1=C(CC(C)(C)CC1=O)N2 (configuration not stated) | 1.88 µM
18 | Cc1[nH]nc2c1C(c1cccs1)C1C(=O)CC(C)(C)CC1=N2 (configuration not stated) | 0.627 µM

Row | Compound | AC50
19 | COc1ccc(-c2nn(-c3ccccc3)cc2/C=N/O)cc1OC | 0.617 µM
20 | Cc1[nH]nc2c1C(c1ccc(Cl)s1)C1=C(CC(C)(C)CC1=O)N2 (configuration not stated) | 1.14 µM
21 | Cc1[nH]nc2c1C(C)C1=C(CC(C)(C)CC1=O)N2 (configuration not stated) | 0.534 µM
22 | COc1ccccc1C1C2=C(CC(C)(C)CC2=O)Nc2n[nH]c(C(C)(C)C)c21 (configuration not stated) | 0.834 µM
23 | Cc1[nH]nc2c1C(c1ccc(Br)cn1)C1=C(CC(C)(C)CC1=O)N2 (configuration not stated) | 4.99 µM
24 | Cc1[nH]nc2nc3c(c(-c4cccs4)c12)C(=O)CC(C)(C)C3 | 28.1 µM
25 | Cc1[nH]nc2c1C(c1ccsc1)C1=C(CC(C)(C)CC1=O)N2 (configuration not stated) | 1.37 µM
26 | COc1ccccc1C1C2=C(CCCC2=O)Nc2n[nH]c(C)c21 (configuration not stated) | 3.42 µM
27 | CC(C)c1ccc(-c2nn(-c3ccccc3)cc2/C=N/O)cc1 | 0.737 µM
28 | COc1ccccc1C1C2=C(CCC(C)(C)C2=O)Nc2n[nH]c(C)c21 (configuration not stated) | 0.515 µM
29 | Cc1[nH]nc2c1C(c1ccc(C#N)cc1)C1=C(CC(C)(C)CC1=O)N2 (configuration not stated) | 10.4 µM
30 | COc1ccccc1C1C(C(C)=O)=C(C)Nc2n[nH]c(C)c21 (configuration not stated) | 3 µM
31 | CC1(C)CC(=O)/C(=C\c2ccccc2C(F)(F)F)C(=Nc2cc(C(F)(F)F)[nH]n2)C1 | 3.11 µM
32 | O/N=C/c1cn(-c2ccccc2)nc1-c1ccc(Cl)cc1 | 0.0452 µM
33 | O=S(=O)(Nc1ccccn1)c1ccc(N=Cc2c(O)[nH]c3ccc4ncsc4c23)cc1 | 0.807 µM
34 | O/N=C/c1cn(-c2ccccc2)nc1-c1ccccc1 | 2.93 µM
35 | COc1ccc(C2C3=C(CC(C)(C)CC3=O)Nc3n[nH]c(C)c32)cc1 (configuration not stated) | 14.7 µM

Continued, values first:

Row | AC50 | Compound
36 | 0.0523 µM | Cc1[nH]nc2c1C(c1cccc(C#N)c1)C1=C(CC(C)(C)CC1=O)N2 (configuration not stated)
37 | 0.0357 µM | CC1(C)CC(=O)C2=C(C1)Nc1n[nH]c(C(F)(F)F)c1C2c1ccccc1 (configuration not stated)
38 | 0.0324 µM | CSc1ccccc1C1C2=C(CC(C)(C)CC2=O)Nc2n[nH]c(C)c21 (configuration not stated)
39 | 2.16 µM | Cc1ccc(C2C3=C(CC(C)(C)CC3=O)Nc3n[nH]c(C)c32)cc1 (configuration not stated)
40 | 1.59 µM | COc1ccccc1[C@H]1C2=C(CC(C)(C)CC2=O)Nc2n[nH]c(C(F)(F)F)c21
41 | 0.05 µM | Cc1[nH]nc2c1C(c1cccc3nonc13)C1=C(CC(C)(C)CC1=O)N2 (configuration not stated)
42 | 0.0132 µM and 0.128 µM | COc1ccccc1C1C2=C(CC(C)(C)CC2=O)Nc2n[nH]c(C(F)(F)F)c21 (configuration not stated)
43 | 2.29 µM | Cc1[nH]nc2c1C(c1ccc(F)cc1Cl)C1=C(CC(C)(C)CC1=O)N2 (configuration not stated)
44 | 0.199 µM | Cc1[nH]nc2c1C(c1cccc(C(F)(F)F)c1)C1=C(CC(C)(C)CC1=O)N2 (configuration not stated)
45 | 0.184 µM | CC1(C)CC(=O)C2=C(C1)Nc1n[nH]c(C(F)(F)F)c1C2c1ccccc1F (configuration not stated)
46 | 1.16 µM | COc1cccc(C2C3=C(CC(C)(C)CC3=O)Nc3n[nH]c(C)c32)c1 (configuration not stated)
47 | 0.54 µM | Cc1[nH]nc2c1C(c1cccc(F)c1)C1=C(CC(C)(C)CC1=O)N2 (configuration not stated)
48 | 0.037 µM | Cc1[nH]nc2c1[C@@H](c1ccccc1C(F)(F)F)C1=C(CC(C)(C)CC1=O)N2
49 | 0.3 µM | Cc1[nH]nc2c1C(c1ccccc1Cl)C1=C(CC(C)(C)CC1=O)N2 (configuration not stated)
50 | 0.0513 µM | CC1(C)CC(=O)C2=C(C1)Nc1n[nH]c(C(F)(F)F)c1C2c1cc(F)ccc1C(F)(F)F (configuration not stated)
51 | 1.02 µM | Cc1[nH]nc2c1C(c1ccccn1)C1=C(CC(C)(C)CC1=O)N2 (configuration not stated)
52 | 1.91 µM | Cc1[nH]nc2c1[C@@H](c1cccs1)C1=C(CC(C)(C)CC1=O)N2

Row | AC50 | Compound
53 | 0.0238 µM | COc1ccccc1[C@@H]1C2=C(CC(C)(C)CC2=O)Nc2n[nH]c(C(F)(F)F)c21
54 | 0.919 µM | Cc1[nH]nc2c1C(c1cccc(Cl)c1)C1=C(CC(C)(C)CC1=O)N2 (configuration not stated)
55 | 5.57 µM | Cc1[nH]nc2c1[C@H](c1ccccc1C(F)(F)F)C1=C(CC(C)(C)CC1=O)N2
56 | 0.0833 µM | CCc1[nH]nc2c1C(c1ccccc1OC)C1=C(CC(C)(C)CC1=O)N2 (configuration not stated)
57 | 0.614 µM | Cc1cccc(C2C3=C(CC(C)(C)CC3=O)Nc3n[nH]c(C)c32)c1 (configuration not stated)
58 | 0.173 µM | CC1(C)CC(=O)C2=C(C1)Nc1n[nH]c(C(F)(F)F)c1C2c1ccc(F)cc1C(F)(F)F (configuration not stated)
59 | 0.124 µM | COc1ccccc1C1C2=C(CC(C)(C)CC2=O)Nc2n[nH]c(C)c21 (configuration not stated)
60 | 4.44 µM | Cc1[nH]nc2c1C(c1ccc(Cl)cc1)C1=C(CC(C)(C)CC1=O)N2 (configuration not stated)
61 | 0.408 µM | Cc1[nH]nc2c1C(c1cccnc1)C1=C(CC(C)(C)CC1=O)N2 (configuration not stated)
62 | 0.134 µM | Cc1[nH]nc2c1C(c1ccccc1C#N)C1=C(CC(C)(C)CC1=O)N2 (configuration not stated)
63 | 9.29 µM | Cc1[nH]nc2c1C(c1ccc(C(F)(F)F)cc1)C1=C(CC(C)(C)CC1=O)N2 (configuration not stated)
64 | 2.96 µM | Cc1[nH]nc2c1C(c1ccc(F)cc1)C1=C(CC(C)(C)CC1=O)N2 (configuration not stated)
65 | 0.18 µM | Cc1[nH]nc2c1C(c1ccccc1Br)C1=C(CC(C)(C)CC1=O)N2 (configuration not stated)
66 | 11.6 µM | Cc1[nH]nc2c1[C@H](c1cccs1)C1=C(CC(C)(C)CC1=O)N2
67 | 0.451 µM | CC1(C)CC(=O)C2=C(C1)Nc1n[nH]c(C(F)(F)F)c1C2c1cc(F)ccc1F (configuration not stated)
68 | 0.0425 µM | Cc1[nH]nc2c1C(c1ccccc1C(F)(F)F)C1=C(CC(C)(C)CC1=O)N2 (configuration not stated)
69 | 0.455 µM | Cc1ccccc1C1C2=C(CC(C)(C)CC2=O)Nc2n[nH]c(C)c21 (configuration not stated)

Same assay, conditions: GSK3beta ADP-Glo luminescence kinase assay, 60 min; at 46 µM (top of the series)

Row | Compound | activity, negative = inhibition
70 | COc1ccc(-c2nn(-c3ccccc3)cc2C(=O)O)cc1 | inactive
71 | CN(C)Cc1cn(-c2ccccc2)nc1-c1ccccc1 | inactive
72 | COc1ccccc1C1C2=C(CC(C)(C)CC2=O)Nc2ccccc21 (configuration not stated) | inactive

Source: PubChem BioAssay AID623998 (Broad Institute, 2012)
